Test system: HIV-1 LTR
Experiment: RNase protection assay of pLTR-FF transcripts (elongation, RNA stability)
Type: cell-based
Description: RPA was performed with 10 μg of cytoplasmic RNA and 5 μg of nuclear RNA, using the RPAIII kit from Ambion (Austin, Tex.) according to the manufacturer's instructions. Synthesis of radiolabeled RNA and protection assays were performed as described in Young et al. Mol Cell Biol 2003, 23:6373-6384. To generate antisense RNA probe against the HIV-1 major splice site, firefly luciferase and Renilla luciferase pBSII-KS+HIV (+80-341), pSP-luc and pSP-rluc were linearized with HindIII, XbaI and BsaI, respectively. The resulting probes were 309, 390 and 245 nt long, respectively. […]
Results of the deletion analysis implied that sensitivity to the drugs is conferred by the promoter or another feature in the HIV-1 LTR. […] Nuclear and cytoplasmic RNA was analyzed in RNase protection assays using a probe complementary to the promoter-proximal region of HIV transcripts (FIG. 6A). […]
To examine the possibility that the drugs decrease the stability of RNA transcribed from the HIV promoter, cells transfected with pLTR-FF were incubated in the presence or absence of CPX. Actinomycin D was added to some cultures 12 hr later to block further transcription, and FF RNA was monitored by RPA at intervals thereafter (FIG. 6D, top panel). FF RNA levels were quantified and normalized to the levels at 12 hr (FIG. 6D, bottom panel). […]

## Cc1cc(C2CCCCC2)n(O)c(=O)c1 [CPX, 6-cyclohexyl-1-hydroxy-4-methylpyridin-2[1H]-one]
Actinomycin D added at 12 hr
  rate of FF RNA decay: not affected
In the presence of CPX
  FF mRNA level at 12 hr post-transfection, less than control: ~50%
